In patent US20220280473A1, “COMPOSITIONS AND METHODS FOR MODULATING EPITHELIAL-MESENCHYMAL TRANSITION” (AUCKLAND UNISERVICES LIMITED, priority 2021, published 2022):
Entries after “also recorded” stand apart in the source; their conditions may differ.

Experiments:
Format in all cases: cell-based, Human
ARPE-19 cells [1] = assay: ZO-1 tight junction localisation, immunocytochemistry; details: ARPE-19, HG+Cyt insult plus tonabersat 100 μM, qualitative
Description: (§1) Human adult retinal pigment epithelial cells (ARPE-19; American Type Culture Collection, USA) were cultured in Dulbecco's modified Eagle medium F-12 (DMEM-F12; Thermofisher Scientific Inc., USA) supplemented with 10% foetal bovine serum ([…]: Invitrogen, USA) and a 1× antibiotics and antimycotics mixture (AA, 100× stock) at 37° C. in a humidified 5% CO2 incubator. Cells were grown in T75 flasks, and the medium was changed twice per week until confluent.
(§2) At passages 15-18, cells were plated at 2.5×10^5 cells/mL in 8-well chamber slides for immunohistochemical studies, 6-well plates with inserts for fluorescein isothiocyanate (FITC)-dextran dye leak and transepithelial electrical resistance (TEER) measurements, and 24-well plates for cell migration studies. Once confluent, cells were treated as three separate groups: untreated, insult of HG+Cyt, or HG+Cyt insult plus tonabersat treatment (HG+Cyt+Ton). […]
(§3) Fluorescence images were taken on an Olympus FV1000 confocal laser scanning microscope (Olympus, Japan), and processed using Olympus FV10-ASW viewer and ImageJ software (Version 1.52a, National Institute of Health, USA). […] RPE65 and α-SMA expression was quantified by measuring the mean fluorescence intensity (MFI). […] The ratio of α-SMA to RPE65 expression was additionally calculated by (α-SMA MFI/RPE65 MFI). ZO-1 was qualitatively assessed for changes in localisation.

ARPE-19 cells [2] = assay: RPE65 expression by quantitative immunocytochemistry after HG+Cyt insult
Description: as §1, §2, §3

ARPE-19 cells [3] = assay: Transepithelial electrical resistance (TEER) of cell monolayer; details: ARPE-19 monolayer, HG+Cyt plus tonabersat 100 μM
Description: as §1
(§4) At passages 15-18, cells were plated at 2.5×10^5 cells/mL in 8-well chamber slides for immunohistochemical studies, 6-well plates with inserts for fluorescein isothiocyanate (FITC)-dextran dye leak and transepithelial electrical resistance (TEER) measurements, and 24-well plates for cell migration studies. Once confluent, cells were treated as three separate groups: untreated, insult of HG+Cyt, or HG+Cyt insult plus tonabersat treatment (HG+Cyt+Ton). The insult of HG+Cyt was used to induce DR-like conditions as has been previously described (Kuo et al., 2020; Mugisho et al., 2018a, 2018b), and consisted of a combination of 32.5 mM HG and the pro-inflammatory cytokines; tumour necrosis factor alpha (TNF-α; 10 ng/mL; Peprotech, USA) and interleukin-1 beta (IL-1β; 10 ng/mL; Peprotech, USA).
(§5) Tonabersat (MedChemExpress, NJ, USA) was administered at a concentration of 100 μM to cells at the same time as the HG+Cyt insult (HG+Cyt+Ton). To achieve this tonabersat was dissolved in 100% DMSO at a concentration of 100 mM and then 1 μl of the stock solution was added to 999 μl of culture medium containing HG+Cyt. Cells were incubated under treatment conditions for 72 h unless otherwise stated. Brightfield images were taken using a light microscope at 24, 48, and 72 h post-treatment. All experiments were repeated thrice.
To determine the effect of conditions on the TEER of the cell monolayer, cells were again seeded into the inserts of 6-well Transwell® plates (Corning Incorporated, USA), with additional medium in the base. […] TEER values were quantified relative to the 0 h values for each respective group. […]

ARPE-19 cells [4] = assay: α-SMA expression by quantitative immunocytochemistry after HG+Cyt insult; details: for α-SMA to RPE65 expression ratio / α-SMA expression (mean fluorescence intensity, compared to untreated levels): ARPE-19, HG+Cyt insult plus tonabersat 100 μM; for α-SMA to RPE65 expression ratio: α-SMA MFI/RPE65 MFI
Description: as §1, §4, §5
Cells were fixed with 4% paraformaldehyde for 10 min and permeabilized with 0.1% Triton X-100 in phosphate-buffered saline (PBS) for 10 min. Cells were blocked in normal goat or horse serum for 1 h, and then incubated overnight at 4° C. with either mouse anti-RPE65 (1:1000; Abcam, UK) and goat anti-α-SMA (1:200; Abcam, UK), or rabbit anti-ZO-1 (1:1000; Invitrogen, USA). Two 10 min washes followed in PBS, after which cells were incubated at room temperature for 2 h with their respective secondary antibodies; donkey anti-rabbit Alexa-488 (1:500; Abcam, UK), donkey anti-mouse Alexa-488 (1:500; Abcam, UK) or donkey anti-goat Cy3 (1:500; Invitrogen, USA). Cells were washed in PBS twice for 10 min. Cell nuclei were stained with DAPI (1:1000; Sigma-Aldrich, USA), and slides were mounted using Citifluor™ anti-fade reagent and sealed with nail varnish.
Fluorescence images were taken on an Olympus FV1000 confocal laser scanning microscope (Olympus, Japan), and processed using Olympus FV10-ASW viewer and ImageJ software (Version 1.52a, National Institute of Health, USA). Five images were taken from a single chamber per condition and repeated in three separate experiments. RPE65 and α-SMA expression was quantified by measuring the mean fluorescence intensity (MFI). Data is presented relative to the respective untreated group. The ratio of α-SMA to RPE65 expression was additionally calculated by (α-SMA MFI/RPE65 MFI). ZO-1 was qualitatively assessed for changes in localisation.

ARPE-19 cells [5] = assay: Cx43 cell membrane localization, immunolabelling; details: ARPE-19, HG+Cyt insult plus tonabersat, qualitative
ARPE-19 cells [6] = assay: TGF-β1 and TGF-β2 release after HG+Cyt insult; details: HG+Cyt insult plus tonabersat
ARPE-19 cells [7] = assay: Cell migration (scrape wound) assay after HG+Cyt insult; details: ARPE-19, HG+Cyt plus tonabersat 100 μM
Description: as §1, §4
Tonabersat (MedChemExpress, NJ, USA) was administered at a concentration of 100 μM to cells at the same time as the HG+Cyt insult (HG+Cyt+Ton). […]
To determine cell migration rates following 72 h treatment, a scrape wound was created in the cell monolayer by drawing a 1000 μL pipette tip vertically over the cells by hand, and the width of the wound measured over time. […] The width of the scrape was measured with the line tool and “measure” feature in ImageJ at eight regular intervals (guided using a grid overlay) within each image. […] The scrape wound width was quantified relative to the post-scrape width at time 0 h and converted to a percentage scrape closure for each condition. […]

With `CC(=O)c1ccc2c(c1)[C@H](NC(=O)c1ccc(F)c(Cl)c1)[C@H](O)C(C)(C)O2` [tonabersat, N-[(3S,4S)-6-acetyl-3-hydroxy-2,2-dimethyl-3,4-dihydrochromen-4-yl]-3-chloro-4-fluorobenzamide] the “ZO-1 cell membrane localization” value (ARPE-19 cells [1]) was “maintained ZO-1 localization at the cell membrane; also recorded: prevented loss of ZO-1 cell membrane localization”, the “RPE65 expression (mean fluorescence intensity relative to untreated group)” value (ARPE-19 cells [2]; ARPE-19, HG+Cyt insult plus tonabersat 100 μM, 72 h, comparison with HG+Cyt and untreated groups, listed as HG+Cyt+Ton) was “not being significantly different to either group; also recorded: no statistically significant difference” and the “RPE65 expression decrease following HG+Cyt insult (immunolabelling images)” value (ARPE-19 cells [2]; ARPE-19, co-application of tonabersat, FIG. 2 qualitative) was “prevented”. For the same compound, the “TEER relative to 0 h value” (ARPE-19 cells [3]; 24 h) was 99.5±1.2%, the “TEER relative to 0 h value” (ARPE-19 cells [3]; 48 h) was 114.9±3.2% and the “TEER relative to 0 h value” (ARPE-19 cells [3]; 72 h) was 97.7±1.1%. For the same compound, the “α-SMA to RPE65 expression ratio” value (ARPE-19 cells [4]; 24 h) was 1.1, the “α-SMA expression (mean fluorescence intensity, compared to untreated levels)” value (ARPE-19 cells [4]; 72 h) was 75.5±8.4% and the “α-SMA expression (mean fluorescence intensity, compared to untreated levels)” value (ARPE-19 cells [4]; 72 h, listed as HG+Cyt+Ton) was “significantly reduced”. For the same compound, the “α-SMA to RPE65 expression ratio” value (ARPE-19 cells [4]; 72 h) was 0.8, the “α-SMA expression increase and striation following HG+Cyt insult (immunolabelling images)” value (ARPE-19 cells [4]; ARPE-19, addition of tonabersat, FIG. 2 qualitative) was “changes were prevented” and the “Cx43 cell membrane localization” value (ARPE-19 cells [5]) was “maintained Cx43 localization”. The “HG+Cyt induced TGF-β2 release” value (ARPE-19 cells [6]; 24 h) was “prevented HG+Cyt induced TGF-β2 release back to untreated levels”, the “TGF-β1 and 2 levels” value (ARPE-19 cells [6]; 72 h) was “no significant differences between all groups” and the “scrape wound percentage closure” value (ARPE-19 cells [7]; 4 h post-scrape vs 0 h scrape width) was “no significant difference in percentage closure”. For the same compound, the “scrape wound percentage closure” value (ARPE-19 cells [7]; 24 h post-scrape relative to 0 h width) was 33.8±9.6% and the “scrape wound percentage closure” value (ARPE-19 cells [7]; 24 h post-scrape relative to 0 h width, listed as HG+Cyt+Ton) was “reduction in scrape wound closure”.
